Test results: patent US20250255961A1, “METHODS TO STIMULATE IMMUNE RESPONSES TO MUTANT RAS USING NUCLEATED CELLS” (STEMCELL TECHNOLOGIES CANADA INC., priority 2020, published 2025)

Columns and labels:
[1] = tested on: K-Ras G12V responder T cells; assay: IFN-γ ELISPOT: peptide-loaded HLA-A*11+ human PBMCs co-cultured with K-Ras G12V responder T cells; assay type: cell-based; details: Example 4, FIG. 4, HLA-A*11+ human PBMCs (donor 296) SQZ-loaded with 100 μM SLP
Protocol: (§1) Human PBMCs from HLA-A*11^+ donor (donor 296) were prepared at a density of 10×10^6/mL, SQZ processed at room temperature through a constriction of 4.5 μm width, 10 μm length and 70 μm depth at 60 psi with 100 μM of the respective K-Ras synthetic long peptide (G12V^1-16, G12V^2-19) or with vehicle control (DMSO) in RPMI medium. Following SQZ-processing, the SQZ-loaded PMBCs were centrifuged, and the supernatant was discarded. The cells were subsequently washed once in R10 medium (RPMI+10% FCS+1% Pen/Strep), then washed twice in CTL medium (supplemented with 1% glutamine), before resuspension in fresh CTL medium (supplemented with 1% glutamine).
2×10^5 SQZ-loaded PBMCs were then placed in co-culture with 5×10^4 K-Ras G12V responder T cells (generated in transgenic mice) in an IFN-γ ELISPOT plate. As a positive control, 10 μM K-Ras G12V^7-16 peptide containing the minimal epitope was added directly to untreated PBMCs and responder cells in the ELISPOT plate (peptide spike). The plate was incubated overnight at 37° C. and then developed/quantified according to manufacturer's instructions.
as §1, with “donor” for “donor (donor 296)”, “constriction with” for “constriction of”, “peptide (K-Ras G12V^3-17, K-Ras G12V^3-42)” for “peptide (G12V^1-16, G12V^2-19)”, “medium. An irrelevant synthetic long peptide (HPV-E7.6) was used as a negative control.” for “medium.”
as §1, with “donor” for “donor (donor 296)”, “10× 10^6/mL,” for “10×10^6/mL,”, “(wild type K-Ras^1-16, G12V^1-16, wild type K-Ras^2-22, or G12V^2-22)” for “(G12V^1-16, G12V^2-19)”
as §1, with “donor” for “donor (donor 296)”, “of a single” for “of the respective”, “peptide (G12V^1-16” for “peptide (G12V^1-16, G12V^2-19)”, “or G12V^2-19), or a combination of two K-Ras synthetic long peptides which are each at 100 μM (G12V^1-16 plus G12D^1-16 or G12V^2-19 plus G12D^1-16) or” for “or with”, “glutamine). […]” for “glutamine).”

[2] = tested on: K-Ras G12V responder T cells; assay: as above; assay type: cell-based; details: Example 8, FIG. 8; HLA-A*11+ human PBMCs SQZ-loaded with one SLP or a combination of two SLPs, each at 100 μM

With “TEYKLVVVGAVGVGKSAL [G12V^2-19, K-Ras G12V synthetic long peptide, residues 2-19]” the “IFN-γ secretion by K-Ras-G12V responder T cells upon co-culture” value [1] was “significantly increased”, the “IFN-γ secretion by K-Ras-G12V responder T cells upon co-culture” value ([1]; listed as K-Ras-G12V^2-19) was “increased amount” and the “IFN-γ expressing K-Ras-G12V responder T cells upon co-culture” value [2] was “significant increases”.
